According to publication PMC5712521, “Dendrogenin A drives LXR to trigger lethal autophagy in cancers” (Nature Communications, 2017):
Read-outs that look alike come from different tables or passages of the source.

Columns and labels:
[1] = DDA concentrations in spleen and bone marrow; format: in vivo, NSG mice; details: NSG, mouse, ip, daily i.p. 20 mg/kg for 21 days
Experimental: Bars represent S.E.M. ( ***P<0.001, **P<0.01, t test).
(also on this page, place not known: plasma times treatment mice administration plasma times treatment mice administration mg/kg mg/kg Summary pharmacokinetic parameters mice. were measured daily administration mg/kg days. (***P<0.001, mg/kg DDA in plasma (p.o.) (p.o.) DDA in plasma (µM) i.p. i.v. (mg/kg) 20 T1/2 0.1 T1/2 elimination 1.0 T1/2 - Bioavailability (%EP) (µM) 370 Tmax 0.002 marrow 0.01 0.1 1 10 Control DDA DDA level (µM) ***)

AML patient samples = test: Annexin-V/7AAD viability assay on AML patient samples (bulk and CD34+CD38−CD123+ progenitor/LSC); format: cell-based, human; details: for IC50: Homo sapiens, 48 h, panel of 61 AML patient samples
Experimental: The cytotoxic response to DDA of AML cells was determined by flow cytometry. Cells were exposed to DDA for 24 or 48 h then washed with cold phosphate-buffered saline (PBS) and resuspended in 200 µl of Annexin-V binding buffer. For the analysis of AML patient samples, cells were incubated with antibodies against the surface markers CD45-V450 (clone H130), CD34-PeCy7 (clone 8G12), CD38-APC (clone HB7) and CD123-PE (clone 9F5) (BD Pharmagen) before being resuspended in Annexin-V binding buffer. Annexin-V-fluorescein isothiocyanate (BD Pharmagen, clone 2331) and 7-aminoactinomycin D (7AAD) were then added, and the samples were incubated in the dark at room temperature for 15 min. The percentage of viable cells, Annexin-V-7AAD-negative cells, was scored using a flow cytometer.
AML patient and normal bone marrow samples were obtained from patients in the Hematology Department of Toulouse (France), after obtaining consent in accordance with the Declaration of Helsinki[67], and according to institutional guidelines. Samples were stored at the INSERM-1037 HIMIP collection (no. DC-2008-307-CPTP1 HIMIP). For some experiments, fresh leukemic blasts recovered at diagnosis were immediately treated with DDA. In other cases, frozen cells were thawed in IMDM medium with 20% FBS. Patient characteristics are shown in supplementary data 1. Normal bone marrow cells were subjected to Ficoll-Paque density gradient separation to isolate mononuclear cells, followed by CD34+ cell separation using high-gradient magnetic-activated cell sorting, according to the manufacturer’s manual. The in vivo assays were performed with cryopreserved cells.

SKMEL-28 tumors = test: SKMEL-28 melanoma xenograft; format: in vivo, mice; details: human SKMEL-28; i.p. 20 mg/kg/day
Experimental: Exponentially growing cells were harvested, washed twice in PBS then resuspended in PBS. SKMEL-28, shSKMEL-28 clones (5 × 10^6 cells) and B16F10 (3 × 10^5) cells were injected subcutaneously (s.c.) into the flank of nude mice. HL60, KG1 and shKG1-clones (5 × 10^6) were inoculated s.c. into the flanks of NOD/SCID mice. When tumors were palpable, animals (n = 10–20 mice per group, as indicated) were randomized to receive either DDA (20 mg/kg) intraperitoneally (i.p.) or 40 mg/kg by oral gavage (p.o), once a day, or vehicle solvent for the indicated time. Animals were examined daily and body weights were measured twice a week. In all experiments, tumor volume was determined by direct measurement with a caliper and was calculated using the formula (width^2 × length)/2. At the end of experiments, mice were sacrificed and tumors were excised and divided for intra-tumoral DDA quantification, immunoblotting, or immunohistochemistry analyses.

## CC(C)CCC[C@@H](C)[C@H]1CC[C@H]2[C@@H]3C[C@@H](NCCc4cnc[nH]4)[C@@]4(O)C[C@@H](O)CC[C@]4(C)[C@H]3CC[C@]12C [DDA, Dendrogenin A]
[1]; bone marrow, read-out: DDA concentration in the bone marrow
  concentration at 21 days: 3480 ± 530 nM
[1]; spleen, read-out: DDA concentration in the spleen
  concentration at 21 days: 1320 ± 30 nM
AML patient samples; AML bulk and progenitor/LSC (CD34+CD38−CD123+) subpopulation
  efficiency relative to cytarabine: 100 fold
AML patient samples; read-out: median IC50, cell viability
  IC50: 3.3 µM
AML patient samples; read-out: range of IC50, cell viability
  IC50: 1.2 to 11.3 µM
SKMEL-28 tumors
  tumor growth: significantly reduced the growth
